Experimental findings from US10561658B2, “Thieno- and pyrrolopyrimidine analogues as anticancer agents and methods of use thereof” (UNIVERSITY OF MARYLAND, BALTIMORE COUNTY, priority 2015, dated 2020) are described below.

Molecules are shown by their SMILES. Some results are limits rather than exact numbers.

One assay concerns L1210 leukemia cell line. The assay can be described thus: Apoptosis analysis (annexin V staining), L1210. Type of assay: cell-based, mouse. Conditions: for cells undergoing apoptosis (annexin V): L1210, 1 μM, 48 h. On the procedure:
FIGS. 5 A and B contains apoptosis analysis (annexin V staining) in the L1210 leukemia cell line relating to compounds 1 (ii), 2 (iii) and 19 (iv) relative to a control (i). After incubation with 1 μM compound (1) for 48 h, 60% of the cells were observed undergoing apoptotic cell death, with the vast majority of these in early apoptosis (FIG. 5A (ii)).
Many antineoplastic compounds arrest cell proliferation by activating specific checkpoints that block progression through the cell cycle. To test whether compounds 1 or 2 inhibited cell proliferation by this mechanism, their effects on L1210 cell cycle distributions were monitored using propidium iodide staining and flow cytometry (FIG. 7). Cell cycle and apoptosis studies were conducted on L1210, a mouse lymphocytic leukemia cell line obtained from the American Type Culture Collection and grown in Dulbecco's Modified Eagle's Medium (DMEM) plus 10% fetal bovine serum (FBS). 2×10^6 cells were seeded in 100 mm dishes and treated with vehicle alone or compounds 1 or 2 at the IC50 values determined by cell viability assays or an equivalent volume of DMSO. At 24 and 48 h following treatment the cells were collected, fixed, and stained with propidium iodide (Sigma Aldrich) immediately before analysis by flow cytometry. Vehicle-treated cells were largely confined to G1 and S phases, with very small (<5%) subpopulations in the G2/M phase or showing sub-(<G1) or super-genomic (>G2) DNA content.

Assay [1] deals with Bacillus subtilis ATCC 6633. The assay can be described thus: Antimicrobial growth inhibition, B. subtilis. The format is cell-based. Conditions: ATCC6633; Bacillus subtilis ATCC 6633, 100 μM. On the procedure:
(§1) Evaluation of antimicrobial activity in vitro. Compounds were tested against the following panel of bacteria and fungi purchased from the American Type Culture Collection (ATCC). Briefly, bacteria were grown to mid-log phase, diluted with fresh medium to an optical density at 600 nm (OD600) of 0.030-0.060 and then diluted again 1:10. This suspension (195 μL) was added to wells in a 96 well microtiter plate (Sarstedt) and 5 μL of compound dissolved in DMSO was added to give a final concentration of 100-0.1 μM at 2.5% DMSO by volume. A DMSO negative control and standard antibiotic positive controls were included in each plate. All compounds were tested in triplicate for each concentration. Plates were sealed with parafilm, placed in a Ziploc bag to prevent evaporation, and incubated at 30° C. (fungi) or 37° C. (bacteria) for 16-20 hours (48 hours for C. neoformans). The OD600 values for each well were determined with a plate reader (Biotek, EL800) and the data were standardized to the DMSO control wells after subtracting the background from blank medium. Initial single concentrations were tested at 100 μM and active compounds were further tested with at least nine concentrations for a full dose response. Dose response curves were generated using GraphPad Prism 5 software and used to determine the MIC95 concentrations (minimal concentration that inhibits 95% of growth). Compounds 1, 2, 5 and 19 were screened for growth inhibition activity against a panel of bacteria and fungi at a concentration of 100 as shown in Table 2. Compound 5 was included to test the importance of the C4-Cl substituent for activity across a broader range of biological systems.

Assay [2] concerns Staphylococcus aureus subsp. aureus (MRSA) ATCC 43300. In words: Antimicrobial growth inhibition, S. aureus (MRSA). Type of assay: cell-based. Particulars: Staphylococcus aureus (MRSA) ATCC 43300, 100 μM. The protocol: as §1
Assay [3] concerns Escherichia coli ATCC 25922. The assay can be described thus: Antimicrobial growth inhibition, E. coli. Conditions: ATCC25922; Escherichia coli ATCC 25922, 100 μM. The format is cell-based. On the procedure:
as §1

Another assay deals with MDA-MB-231 cells. In words: Cell cycle distribution (propidium iodide, flow cytometry), MDA-MB-231. Type of assay: cell-based, human. The protocol: Cell cycle distributions of MDA-MB-231 cells after 48 hours in the presence of equitoxic (IC80) doses of (a) compound 1 (15 μM) or (b) compound 2 (8 μM) analyzed by flow cytometry of fixed, propidium iodide-stained cells and compared to vehicle controls (DMSO). A minimum of 3000 cells were analyzed per cell population. Each bar represents the mean±SD across 4 independent cell samples.
Cell-cycle and apoptosis studies were conducted in MDA-MB-231 cells. Cell-cycle analysis of compound 19 at 15 μM concentration lead to arrest of 60% cells in G2/M stage. Similarly, at 1.75 μM concentration, compound 20 arrested 30% of cells in G2/M stage. […] To evaluate the possible mechanism for arrest of cell proliferation, cell-cycle distribution was measured using propidium iodide staining and flow cytometry. […] There are several possibilities that could account for this, including: (i) that cell lysis occurs rapidly following induction of apoptosis, preventing significant accumulation of annexin V-positive bodies, or (ii) that a distinct cell death pathway is triggered by compound 19.
Human metastatic breast cancer MDA-MB-231 cells were obtained from the American Type Culture Collection (ATCC) (Rockville, Md.) and maintained in Dulbecco's Modified Eagle's Medium (DMEM) containing 10% fetal bovine serum (FBS) without antibiotics at 37° C. in a humidified, CO2-controlled incubator. The cytotoxicity of compounds 1 and 2 was assessed by reduction of 3-(4, 5-dimethylthiazol-2-yl)-2,5-diphenyltetrazolium bromide (MTT). MDA-MB-231 cells were seeded in 96-well plates at 5×10^3 cells per well and treated with a range of drug concentrations. After 48 hours, cell viability was measured using the MTT Cell Proliferation Assay kit (ATCC) according to the manufacturer's instructions. Percent cell viability was plotted as a function of drug concentrations and analyzed using a sigmoidal dose response function with PRISM v3.03 software (GraphPad) to resolve drug concentrations yielding 50% cell death (IC50). The cell cycle distributions of MDA-MB-231 cells treated with compounds 1 or 2 were analyzed using propidium iodide staining and flow cytometry. 2×10^6 cells were seeded in 100 mm dishes and treated with compounds 1 or 2 at the IC80 values determined by cell viability assays or an equivalent volume of DMSO. 48 h following treatment the cells were collected, fixed, and stained with propidium iodide (Sigma Aldrich) immediately before analysis by flow cytometry.
As shown in Example 11, compounds 1 and 2 both induced apoptosis but involving a mechanism independent of cell cycle arrest. To test whether the toxicity of these agents for MDA-MB-231 cells proceeded via a similar pathway, their effects were monitored on cell cycle distributions using propidium iodide staining and flow cytometry. […]
On the technique in general: In flow cytometry, cells or beads pass a laser one at a time.

For the compound `Clc1nc(Cl)c2scc(Br)c2n1` [Compound 2, 7-Bromo-2,4-dichlorothieno[3,2-d]pyrimidine], the “Annexin V positive cells” value with L1210 leukemia cell line (L1210, 5.4 μM) came to 55%. Moreover, the “cells consistent with late apoptosis” value with L1210 leukemia cell line (L1210, 5.4 μM) turned out to be 40%. The inhibition at 100 µM in assay [1], in assay [2] and in assay [3] was < 43% in each case. Besides, the “effect on cell cycle distribution” value in the assay with MDA-MB-231 cells (MDA-MB-231, IC80 dose, 48 h) is given as “no effect”.
`Clc1nc(Cl)c2[nH]ccc2n1` [Compound 19, 2,4-Dichloropyrrolo[3,2-d]pyrimidine]: the “cells undergoing apoptosis (annexin V)” value with L1210 leukemia cell line stood at 85%. Further, the inhibition at 100 µM in assay [1], in assay [2] and in assay [3] was < 43% each time. For the same compound, in the assay with MDA-MB-231 cells (15 μM), the “cells arrested in G2/M stage” value is 60%.
Turning to `Clc1nc(Cl)c2sccc2n1` [Compound 1, 2,4-Dichlorothieno[3,2-d]pyrimidine], in the assay on L1210 leukemia cell line, the “cells undergoing apoptosis (annexin V)” value came out at 60%. For the same compound, the inhibition at 100 µM is 43% in assay [1], < 43% in assay [2] and < 43% in assay [3]. Also, in the assay with MDA-MB-231 cells (MDA-MB-231, IC80 dose, 48 h), the “cells accumulated in G2/M phase” value is given as > 70%.

For orientation: inhibition means the relative decrease from the control value, in per cent. A lower inhibition goes with little suppression.
